In US20210267979A1, “THERAPEUTIC AGENT FOR TREATING DIFFUSE GASTRIC CANCER” (KANAZAWA MEDICAL UNIVERSITY, priority 2018, published 2021):
Where two headings read alike, the source gives them in different places.

How the values were obtained:
MKN7 = assay: Cell proliferation of non-diffuse gastric cancer cells MKN7 (Cell Counting Kit-8); format: cell-based, Human; conditions: for IC50: Homo sapiens, MKN-7, MKN7
Procedure: (§1) Cell proliferation was measured by Cell Counting Kit-8 (CCK-8) (Dojindo Laboratories, Kumamoto, Japan) (M. Ishiyama, et al., Talenta 44; 1299: 1997). Cells were seeded at 100 micro L/well at a concentration of 5×10^4 cells/mL and were cultured in an incubator at 37° C. for 24 hours. To each well, HGF (R&D systems) (50 ng/mL) or amphiregulin (R&D Systems (Minneapolis, Minn.)) (100 ng/mL) and trametinib (Selleck Chemicals (Houston, Tex.)) (0.001 to 10 micro M) were then added, and the cells were further cultured in an incubator at 37° C. for 72 hours. To each well, 10 micro L of a WST-solution was added, which was incubated at 37° C. for 4 hours. Absorbance was measured at a wavelength of 450 nm by a microplate reader (BIO-RAD Laboratories, Inc.). A similar experiment was repeated three times in triplets.
(§2) Effects of trametinib on proliferation of non-diffuse gastric cancer cell were examined by the similar method to that in Example 1.
(§3) Human non-diffuse, well-differentiated gastric cancer cells used were MKN7 (Health Science Research Resources Bank (Osaka, Japan)) and GCR1 (Cancer Research Institute, Kanazawa University).

NUGC4 [1] = assay: Cell proliferation of diffuse gastric cancer cell strain NUGC4 (Cell Counting Kit-8); format: cell-based; conditions: for Inhibitory effect on HGF induced, amphiregulin induced and base line cell proliferation: single agent, 0.001 to 10 micro M; for IC50: Homo sapiens, 72 hours
Procedure: (§4) Each diffuse gastric cancer cell strain of NUGC4 (obtained from Health Science Research Resources Bank (Osaka, Japan)) and GCIY (obtained from Riken BioResource Research Center (Tsukuba, Japan)) was cultured and passaged in an RPMI1640 culture medium containing 10% fetal calf serum, 100 units/mL penicillin, and […] streptomycin antibiotic, and was used for the following experiments. Mycoplasma infection of cultured cells was regularly checked by MycoAlert Mycoplasma Detection kit (Lonza).
as §1

NUGC4 cells = assay: Survival of Balb/c nu/nu mice intraperitoneally transplanted with diffuse gastric cancer cells; format: in vivo, Balb/c nu/nu mouse; conditions: NUGC4 intraperitoneal transplant; oral administration from day 21 for 4 weeks, then 4 weeks observation; control mice all died within 7 weeks
Procedure: To a Balb/c nu/nu mouse (6 weeks old), diffuse gastric cancer cells (NUGC4 cells, 2×10^6 cells in 200 micro L PBS) were transplanted by intraperitoneal administration. On 21 days after transplantation, ascites was observed, and oral administration was started with trametinib (0.1 mg/kg body weight or 0.3 mg/kg body weight), everolimus (1.5 mg/kg body weight), combined use of trametinib (0.1 mg/kg body weight) and everolimus (1 mg/kg body weight), combined use of trametinib (0.1 mg/kg body weight) and everolimus (1 mg/kg body weight), combined use of trametinib (0.3 mg/kg) and everolimus (1 mg/kg), or combined use of trametinib (0.3 mg/kg body weight) and everolimus (5 mg/kg body weight). Each of the trametinib and the everolimus was dissolved in a solution (7% DMSO, 13% Tween80, 80% Otsuka glucose injection (5%), HCl equimolar to each compound). To a control group, only a solution containing no medicinal agent was administered. Administration was continued for 4 weeks, followed by observation for the following 4 weeks without administration of the medicinal agent.

GCIY = assay: Cell proliferation of diffuse gastric cancer cell strain GCIY (Cell Counting Kit-8); format: cell-based; conditions: for IC50: Homo sapiens
Procedure: as §4, §1

GCR1 = assay: Cell proliferation of non-diffuse gastric cancer cells GCR1 (Cell Counting Kit-8); format: cell-based; conditions: Homo sapiens
Procedure: as §1, §2, §3

MKN45 = assay: Cell proliferation of cMet gene-amplified gastric cancer cell strain MKN45 (Cell Counting Kit-8); format: cell-based; conditions: Homo sapiens
Procedure: as §1
Effects of trametinib on proliferation of cMet gene-amplified gastric cancer cell were examined by the similar method to that in Example 1.
As the cMet gene-amplified gastric cancer cells, cMet gene-amplified gastric cancer cell strain MKN45 (Health Science Research Resources Bank (Osaka, Japan)) was used.

NUGC4 [2] = assay: Cell proliferation of diffuse gastric cancer cell strain NUGC4 (Cell Counting Kit-8); format: cell-based; conditions: for IC50: Homo sapiens
[3] = HGF induced, combined with everolimus 1 micro M, read-out: Trametinib IC50 (micro M) HGF
[4] = amphiregulin induced, combined with everolimus 1 micro M, read-out: Trametinib IC50 (micro M) amphiregulin
[5] = base line, Example 5, combined use with everolimus 1 micro M, read-out: Trametinib IC50 (micro M) Base line
[6] = HGF induced proliferation, read-out: Trametinib IC50 (micro M) HGF
[7] = amphiregulin induced proliferation, read-out: Trametinib IC50 (micro M) amphiregulin
[8] = without HGF or amphiregulin, read-out: Trametinib IC50 (micro M) Base line

O=C(NC[C@H](O)CO)c1ccncc1Nc1ccc(I)cc1F [pimasertib]
Proliferation inhibitory effect of combined use of pimasertib and rapamycin (MKN7; MKN7, rapamycin 1 micro M): no combined effect was exhibited

Cc1cc(NC(=O)c2cccc(NC(=O)/C=C/CN(C)C)c2)ccc1Nc1nccc(-c2cccnc2)n1 [JNK-IN-8]
Inhibitory effect on HGF induced, amphiregulin induced and base line cell proliferation (NUGC4 [1]): did not exhibit obvious inhibitory effects

AZD5363
Inhibitory effect on the HGF induced cell proliferation (NUGC4 [1]; HGF induced): no inhibitory effect was exhibited except for a high concentration of 10 micro M
Inhibitory effect on the amphiregulin induced cell proliferation (NUGC4 [1]; amphiregulin induced): a slight inhibitory effect was exhibited at a high concentration of 1 micro M or more
Inhibitory effect on HGF induced, amphiregulin induced and base line cell proliferation (NUGC4 [1]): even lower than the inhibitory effect of everolimus
Inhibitory effect on the base line cell proliferation (NUGC4 [1]; without HGF and AP): No inhibitory effect was exhibited

CO[C@H]1C[C@@H]2CC[C@@H](C)[C@@](O)(O2)C(=O)C(=O)N2CCCC[C@H]2C(=O)O[C@H]([C@H](C)C[C@@H]2CC[C@@H](OCCO)[C@H](OC)C2)CC(=O)[C@H](C)/C=C(\C)[C@@H](O)[C@@H](OC)C(=O)[C@H](C)C[C@H](C)/C=C/C=C/C=C/1C [everolimus]
Survival time as compared with the control group (NUGC4 cells): prolonged survival times

CC(=O)Nc1cccc(-n2c(=O)n(C3CC3)c(=O)c3c(Nc4ccc(I)cc4F)n(C)c(=O)c(C)c32)c1 [Trametinib, trametinib]
IC50 (NUGC4 [1]; NUGC-4, HGF 50 ng/mL induced proliferation, read-out: Trametinib IC50 (micro M) HGF): 100 nM
IC50 (NUGC4 [1]; NUGC-4, amphiregulin 100 ng/mL induced proliferation, read-out: Trametinib IC50 (micro M) amphiregulin): 300 nM
IC50 (NUGC4 [1]; NUGC-4, without HGF and AP, read-out: Trametinib IC50 (micro M) Base line): ≤ 1 nM
IC50 (GCIY; HGF 50 ng/mL induced proliferation, 72 hours, read-out: Trametinib IC50 (micro M) HGF): 100 nM
IC50 (GCIY; [3]): 100 nM
IC50 (GCIY; amphiregulin 100 ng/mL induced proliferation, 72 hours, read-out: Trametinib IC50 (micro M) amphiregulin): 10000 nM
IC50 (GCIY; [4]): 300 nM
IC50 (GCIY; [5]): 30 nM
IC50 (GCIY; without HGF and AP, 72 hours, read-out: Trametinib IC50 (micro M) Base line): 100 nM
Concentration from which proliferation inhibitory effect on the amphiregulin induced proliferation was observed (GCIY; amphiregulin induced): ≥ 0.03 micro M
IC50 (MKN7; [6]): 100 nM
IC50 (MKN7; [3]): 100 nM
IC50 (MKN7; [7]): 300 nM
IC50 (MKN7; [4]): 100 nM
IC50 (MKN7; [5]): 30 nM
IC50 (MKN7; [8]): 100 nM
IC50 (GCR1; [6]): 100 nM
IC50 (GCR1; [3]): 100 nM
IC50 (GCR1; [7]): 300 nM
IC50 (GCR1; [4]): 100 nM
IC50 (GCR1; [5]): 30 nM
IC50 (GCR1; [8]): 100 nM
IC50 (MKN45; MKN-45, HGF added, read-out: Trametinib IC50 (micro M) HGF): 1 nM
IC50 (MKN45; MKN-45, amphiregulin added, read-out: Trametinib IC50 (micro M) amphiregulin): 1 nM
IC50 (MKN45; MKN-45, without HGF and AP, read-out: Trametinib IC50 (micro M) Base line): 1 nM
IC50 (NUGC4 [2]; NUGC-4, HGF induced, combined with everolimus 1 micro M, read-out: Trametinib IC50 (micro M) HGF): 10 nM
IC50 (NUGC4 [2]; NUGC-4, amphiregulin induced, combined with everolimus 1 micro M, read-out: Trametinib IC50 (micro M) amphiregulin): 30 to 100 nM
IC50 (NUGC4 [2]; NUGC-4, base line, Example 5, combined use with everolimus 1 micro M, read-out: Trametinib IC50 (micro M) Base line): ≤ 1 nM

O=C(NOC[C@H](O)CO)c1ccc(F)c(F)c1Nc1ccc(I)cc1F [PD0325901]
Proliferation inhibitory effect of combined use of PD0325901 and temsirolimus (MKN7; MKN7, temsirolimus 1 micro M): no combined effect was exhibited
Proliferation inhibitory effect of combined use of PD0325901 and temsirolimus (NUGC4 [2]; temsirolimus 1 micro M): synergistically improved by addition of temsirolimus
